Assay results as given in patent US20110086759A1, “CHEMICAL COMPOUNDS” (SYNGENTA CROP PROTECTION, INC., priority 2007, published 2011).

How the values were obtained:
Type in all cases: in vivo
[1] = system: Ipomea hederaceae (IPOHE); assay: Pre-emergence biological efficacy, glasshouse pot test; conditions: Ipomoea hederacea, 312 h; pre-emergence, rate 1,000 g/ha, evaluated after 13 days (100=total damage to plant; 0=no damage); read-out: Percentage damage caused to weed species, IPOHE
Summary of the method: (§1)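 Compound was applied as a spray one day after sowing, at a final dose of 1000 or 250 g/ha. Plants grew under 14 h light, 24/16 °C and 65% humidity, and injury was assessed on day 13 on a 0–100 scale.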

[2] = system: Echinochloa crus-galli (ECHCG); assay: as above; conditions: 312 h, pre-emergence, rate 1,000 g/ha, evaluated after 13 days (100=total damage to plant; 0=no damage), read-out: Percentage damage caused to weed species, ECHCG
Summary of the method: as §1

[3] = system: Alopecurus myosuroides (ALOMY); assay: as above; conditions: 312 h, pre-emergence, rate 1,000 g/ha, evaluated after 13 days (100=total damage to plant; 0=no damage), read-out: Percentage damage caused to weed species, ALOMY
Summary of the method: as §1

Solanum nigrum (SOLNI) [4] = assay: as above; conditions: 312 h, pre-emergence, rate 1,000 g/ha, evaluated after 13 days (100=total damage to plant; 0=no damage), read-out: Percentage damage caused to weed species, SOLNI
Summary of the method: as §1

[5] = system: Amaranthus retoflexus (AMARE); assay: as above; conditions: Amaranthus retroflexus, 312 h; pre-emergence, rate 1,000 g/ha, evaluated after 13 days (100=total damage to plant; 0=no damage); read-out: Percentage damage caused to weed species, AMARE
Summary of the method: as §1

Setaria faberi (SETFA) [6] = assay: as above; conditions: 312 h, pre-emergence, rate 1,000 g/ha, evaluated after 13 days (100=total damage to plant; 0=no damage), read-out: Percentage damage caused to weed species, SETFA
Summary of the method: as §1

[7] = system: Ipomea hederaceae (IPOHE); assay: Post-emergence biological efficacy, glasshouse pot test; conditions: Ipomoea hederacea, 312 h; Rate 1,000 g/ha; post-emergence spray; evaluated after 13 days (100=total damage to plant; 0=no damage to plant); read-out: Percentage damage caused to weed species, post-emergence, IPOHE
Summary of the method: (§2)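 Plants were sown in standard soil and grown 8 days in a glasshouse (24/16° C. day/night, 14 hours light, 65% humidity), then sprayed post-emergence at 1000 or 250 g/ha from acetone/water (50:50) with 0.5% Tween 20. Damage was scored visually after 13 days (0 = none, 100 = total).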

[8] = system: Echinochloa crus-galli (ECHCG); assay: as above; conditions: 312 h, Rate 1,000 g/ha, post-emergence spray, evaluated after 13 days (100=total damage to plant; 0=no damage to plant), read-out: Percentage damage caused to weed species, post-emergence, ECHCG
Summary of the method: as §2

[9] = system: Alopecurus myosuroides (ALOMY); assay: as above; conditions: 312 h, Rate 1,000 g/ha, post-emergence spray, evaluated after 13 days (100=total damage to plant; 0=no damage to plant), read-out: Percentage damage caused to weed species, post-emergence, ALOMY
Summary of the method: as §2

Solanum nigrum (SOLNI) [10] = assay: as above; conditions: 312 h, Rate 1,000 g/ha, post-emergence spray, evaluated after 13 days (100=total damage to plant; 0=no damage to plant), read-out: Percentage damage caused to weed species, post-emergence, SOLNI
Summary of the method: as §2

[11] = system: Amaranthus retoflexus (AMARE); assay: as above; conditions: Amaranthus retroflexus, 312 h; Rate 1,000 g/ha; post-emergence spray; evaluated after 13 days (100=total damage to plant; 0=no damage to plant); read-out: Percentage damage caused to weed species, post-emergence, AMARE
Summary of the method: as §2

Setaria faberi (SETFA) [12] = assay: as above; conditions: 312 h, Rate 1,000 g/ha, post-emergence spray, evaluated after 13 days (100=total damage to plant; 0=no damage to plant), read-out: Percentage damage caused to weed species, post-emergence, SETFA
Summary of the method: as §2

Compound	pest or weed control at 1000 g/ha [1] [%]	pest or weed control at 1000 g/ha [2] [%]	pest or weed control at 1000 g/ha [3] [%]	pest or weed control at 1000 g/ha (Solanum nigrum (SOLNI) [4]) [%]	pest or weed control at 1000 g/ha [5] [%]	pest or weed control at 1000 g/ha (Setaria faberi (SETFA) [6]) [%]	pest or weed control at 1000 g/ha [7] [%]	pest or weed control at 1000 g/ha [8] [%]	pest or weed control at 1000 g/ha [9] [%]	pest or weed control at 1000 g/ha (Solanum nigrum (SOLNI) [10]) [%]	pest or weed control at 1000 g/ha [11] [%]	pest or weed control at 1000 g/ha (Setaria faberi (SETFA) [12]) [%]
COC(=O)c1nc(-c2ccc(F)c(Cl)c2)nc(NCc2ccco2)c1Cl [Compound 245-48, 5-Chloro-2-(3-chloro-4-fluorophenyl)-4-(furan-2-yl-methyl-amino)-6-methoxy-carbonylpyrimidine]	20	30	30	10	80	30	60	40	20	90	100	70
COC(=O)c1nc(-c2ccc(F)c(F)c2F)nc(NCc2ccco2)c1Cl [Compound 247-48, 5-Chloro-4-(furan-2-ylmethylamino)-6-methoxycarbonyl-2-(2,3,4-trifluoro-phenyl)pyrimidine]	40	10	10	40	90	20	60	60	30	90	100	40
COC(=O)c1nc(-c2ccc(OC(F)(F)F)cc2)nc(NCc2ccco2)c1Cl [Compound 248-48, 5-Chloro-4-(furan-2-ylmethylamino)-6-methoxycarbonyl-2-(4-trifluoromethoxy-phenyl)pyrimidine]	0	0	0	20	60	0	50	40	0	70	70	0
COC(=O)c1nc(-c2cccc(OC)c2F)nc(NCc2ccco2)c1Cl [Compound 249-48, 5-Chloro-2-(2-fluoro-3-methoxyphenyl)-4-(furan-2-ylmethyl-amino)-6-methoxy-carbonylpyrimidine]	20	0	0	30	70	20	30	0	0	70	70	0
COC(=O)c1nc(-c2ccc(OC)cc2)nc(NCc2ccco2)c1Cl [Compound 250-48, 5-Chloro-4-(furan-2-ylmethylamino)-2-(4-methoxyphenyl)-6-methoxycarbonyl-pyrimidine]	0	0	0	0	30	20	30	30	0	40	90	50
COC(=O)c1nc(-c2ccc(OC)cc2C)nc(NCc2ccco2)c1Cl [Compound 251-48, 5-Chloro-4-(furan-2-yl-methylamino)-2-(4-methoxy-2-methyl-pheny)-6-methoxy-carbonylpyrimidine]	0	0	0	0	0	0	0	0	0	20	0	0
COC(=O)c1nc(-c2ccc(OC)cc2OC)nc(NCc2ccco2)c1Cl [Compound 252-48, 5-Chloro-2-(2,4-dimethoxyphenyl)-4-(furan-2-yl-methyl-amino)-6-methoxy-carbonylpyrimidine]	0	0	0	0	0	20	30	0	0	20	30	0
COC(=O)c1nc(-c2ccc(OC)c(Cl)c2)nc(NCc2ccco2)c1Cl [Compound 254-48, 5-Chloro-2-(3-chloro-4-methoxyphenyl)-4-(furan-2-yl-methyl-amino)-6-methoxy-carbonylpyrimidine]	0	0	0	0	0	0	10	0	0	30	20	0
COC(=O)c1nc(-c2ccc(C)c(C)c2)nc(NCc2ccco2)c1Cl [Compound 255-48, 5-Chloro-2-(3,4-dimethylphenyl)-4-(furan-2-yl-methyl-amino)-6-methoxy-carbonylpyrimidine]	10	0	0	0	20	0	10	0	0	40	70	0
COC(=O)c1nc(-c2ccc(C)c([N+](=O)[O-])c2)nc(NCc2ccco2)c1Cl [Compound 256-48, 5-Chloro-4-(furan-2-ylmethylamino)-6-methoxycarbonyl-2-(4-methyl-3-nitrophenyl)-pyrimidine]	0	0	0	0	80	0	20	0	0	50	30	10
